Sequences and labels used below:
B1: B1.12 peptide (peptide)
peptide: ACPLDLRSPCG
notes: peptide selected by phage display from the Ph.D.-C7C library against the B1 loop peptide of LMP1; Made on Rink amide MBHA resin, so the C-terminus may be an amide (surmised); also called selected peptide B1.12; source: synthetic peptide (solid-phase Fmoc chemistry, RP-HPLC purified)
B2: B1.12 phage clone (other)
chain: ACPLDLRSPCGGGS
notes: whole phage particles were used and detected with an anti-M13 antibody; also called phage B1.12; positive phage B1.12; source: M13 phage clone from the Ph.D.-C7C library (New England Biolabs), amplified in E. coli ER2738 and titrated; not shown: M13 coat protein pIII (on the phage particle), C-terminal, kept
B3: B1 peptide (first extracellular loop of LMP1) (peptide)
peptide: CMSDWTGG
notes: first extracellular loop of latent membrane protein 1 (LMP1), Epstein-Barr virus; Made on Rink amide resin, so the C-terminus may be an amide (surmised); also called target B1; B1 loop of LMP1; source: synthetic peptide (solid-phase Fmoc chemistry, RP-HPLC purified)

The test system of experiment [1] is LMP1 positive cells (C666.1, HeLa/LMP1). Description: Cellular uptake by flow cytometry, LMP1 positive cells. The experiment is classed as cell-based. Conditions: FITC-labeled peptide 100 μM, 24 hours, C666.1 and HeLa/LMP1. How it is done: (§1) The cellular uptake of the FITC labeled B1.12 peptide/unrelated peptide was analyzed by flow cytometry. C666.1, HeLa/LMP1, and HeLa/Gpt cells, were seeded at a density of 4 × 10^5 cells/mL at 37 °C for 24 hours, and then incubated with 100 μM of both FITC-labeled peptides for 24 hours. Cells were washed three times, trypsinized, centrifuged at 1700 rpm for 5 minutes and then resuspended in 0.35 mL of PBS. The fluorescence associated to the cells was measured using LSR Fortessa X-20 (Becton Dickinson) for HeLa/LMP1 or Attune NxT Flow Cytometer (Thermofisher) cytometer for C666.1 and HeLa/Gpt cells.
Background: In flow cytometry, cells or beads pass a laser one at a time.

For experiment [2], the system named is LMP1 negative cells (HeLa/Gpt). Description: Cellular uptake by flow cytometry, LMP1 negative cells. The format is cell-based. The following applies: FITC-labeled peptide 100 μM, 24 hours. The protocol: as §1
The subject of another experiment is C666.1 cells. Description: Fluorescence microscopy, C666.1. The following applies: 10 µM FITC-labeled peptide, (1 hour elsewhere in the source), fixed C666.1 cells. The format is cell-based. The protocol: To further investigate the fixation of the peptide on C666.1 cells, fluorescence microscopy was performed. […] After being washed with PBS, the fixation of LMP1 was detected by Alexa-fluor 405 labeled secondary antibody (1/100). HeLa/Gpt cells were also stained as described above to serve as negative control. Images were analyzed using an EVOS Floid Cell Imaging Station (Life Technologies).

For the next experiment, the system named is HeLa/Gpt cells. Description: Fluorescence microscopy, HeLa/Gpt. The format is cell-based. Conditions: 10 µM FITC-labeled peptide, HeLa/Gpt negative control. The protocol:
To further investigate the fixation of the peptide on C666.1 cells, fluorescence microscopy was performed. Approximately 1 × 10^6 cells were washed 3 times with PBS, fixed with 4% parafolmaldehyde for 15 minutes, blocked by 5 mg/mL BSA for 1 hour, and incubated with 10 μM FITC labeled B1.12 peptide or anti-LMP1 antibody (1/500 Dako) for 1 hour at room temperature. After being washed with PBS, the fixation of LMP1 was detected by Alexa-fluor 405 labeled secondary antibody (1/100). HeLa/Gpt cells were also stained as described above to serve as negative control. Images were analyzed using an EVOS Floid Cell Imaging Station (Life Technologies).

Experiment [3] has as its target Latent membrane protein 1 (LMP1) on HeLa/LMP1 cells (Epstein-Barr virus) (UniProt P03230). Description: ELISA; competitive inhibition on HeLa/LMP1 cells fixed with 4% paraformaldehyde (10^4 cells/well); synthetic peptide 50-200 µM at 37 °C for 1 hour, then B1.12 phage; anti-M13 antibody detection. In general terms: In an ELISA, binding on a coated surface is turned into a signal by an enzyme label.

The target of experiment [4] is B3. Description: ELISA; competitive inhibition: B1 peptide coated (100 µl of 1 mg/mL in NaHCO3); B1.12 peptide incubated 1 hour at room temperature, then B1.12 phage (2 × 10^10 pfu) 1 hour; bound phage detected by anti-M13 antibody. The following applies: both partners purified.
Experiment [5] has as its target B3. Description: ELISA; B1 peptide (100 µg) coated on the plate; about 1 × 10^10 pfu of phage clone added, 1 hour at room temperature; ten washes with 0.5% TBST; anti-M13 antibody and HRP anti-mouse, ABTS. The following applies: both partners purified.
The experiment “B1.12 peptide” deals with B1. Description: ITC; 30 °C, NaHCO3 buffer 0.1 M pH 5.7; B1 peptide (0.2 mM) in the syringe injected (2 µL per injection) into B1.12 peptide (0.01 mM) in the cell. Conditions: both partners purified. (In general: In ITC the heat of successive injections is recorded.)

*: point of attachment. FITC = O=C1OC2(c3ccc(O)cc3Oc3cc(O)ccc32)c2ccc(NC(=S)*)cc21

Chain of Latent membrane protein 1 (LMP1) on HeLa/LMP1 cells (Epstein-Barr virus) (P03230 whole entry): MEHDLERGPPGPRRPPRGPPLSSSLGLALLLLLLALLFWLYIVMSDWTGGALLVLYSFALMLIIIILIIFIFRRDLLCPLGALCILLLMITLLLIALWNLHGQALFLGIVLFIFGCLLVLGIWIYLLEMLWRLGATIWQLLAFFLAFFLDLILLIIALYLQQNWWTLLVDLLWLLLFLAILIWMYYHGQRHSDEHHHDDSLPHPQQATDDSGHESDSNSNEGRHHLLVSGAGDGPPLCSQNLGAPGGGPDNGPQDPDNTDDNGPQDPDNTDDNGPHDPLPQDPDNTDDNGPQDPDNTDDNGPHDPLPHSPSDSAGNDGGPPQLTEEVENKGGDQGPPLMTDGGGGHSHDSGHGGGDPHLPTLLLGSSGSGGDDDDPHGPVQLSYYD

Regarding “FITC-labeled B1.12 peptide: N-terminus FITC labeled B1.12 ({FITC}-ACPLDLRSPCG-NH2; cysteine pairing not given here)”, the cellular uptake entry in experiment [1] is “significantly higher uptake”. The cellular binding/uptake entry in experiment [2] is given as “no binding”. In the experiment on C666.1 cells, the “colocalization with LMP1” value is reported as “co-localized with LMP1”. The “binding to cells (microscopy)” value in the experiment with HeLa/Gpt cells is on record as “no binding was observed”.

On to B1, for which, in experiment [3], the inhibition ratio of phage B1.12 binding at 100 µM peptide turned out to be 45%. Further, the “inhibition ratio of phage B1.12 binding at 400 µM peptide” value in experiment [4] is ~43%.

With B2, in experiment [5], the binding result was “binds”.

For B3, the binding result with B1.12 peptide is reported as “binds”.
